Assay results as given in patent publication US9271943B2, “Arsenic compound solution and albumin nanoparticle and lyophilized preparation entrapping arsenic compound prepared using same” (ZHEJIANG CHINESE MEDICAL UNIVERSITY, priority 2011, dated 2016).

Legend:
[1] = tested on: human T-cell lymphoma cell line jurkat cells; assay: Cell apoptosis by AnnexinV/PI double staining flow cytometry; format: cell-based; conditions: for Apoptotic rate / Early apoptotic rate / Early apoptotic rate + Apoptotic rate / Survival rate: jurkat cells, treated for 44 hours
Description: The human T-cell lymphoma cell line jurkat cells in exponential growth phase are inoculated into a 6-well plate and cultured; 3 ml of jurkat cells with a cell density of 2χ10^5/ml are inoculated into each well, and the 6-well plate is placed in a 37° C., 5% CO2 incubator. After being cultured for 4 hours, […], and the arsenic compound solutions with different final As2O3 concentrations are prepared as follows: the arsenic compound solution obtained in Example 1 is first diluted with deionized water to 80 μg/ml, and then diluted to the desired concentration with 1640 culture fluid. The control group is treated with an equivalent volume of 1640 culture fluid. After being treated for 44 hours, jurkat cells in the experimental and control groups with a cell density of 1χ10^6/ml are collected, and apoptosis is studied by AnnexinV/PI double staining flow cytometry.)
The cells in the experimental and control groups with a density of 1χ10^6 jurkat cells/ml are respectively collected, washed twice with PBS, and subjected to centrifugation at 1000 r/min for 5 min, and the supernatant is discarded. Each 100 μl of the cell suspension is mixed with 5 μL Annexin-V, and then mixed with 2 μL of propidium iodide (PI). The mixtures are incubated at room temperature and dark conditions for 15 min, then mixed with 400 μl of 1χAnnexin-V binding buffer after incubation, and placed in an ice water bath. Meanwhile, the flow cytometry instrument is subjected to regular correct, besides, the normal cells in the control group are collected to prepare positive control and negative control for dead cells and survival apoptotic cells to correct the instrument, so that the instrument has more precise control threshold for different characteristic samples. Then, the stained cells were detected by flow cytometry; and similar results are obtained by experiment repeated: […]

[2] = tested on: human B lymphoma cell line Daudi cells; assay: Trypan blue count of survival and dead Daudi cells; format: cell-based; conditions: for Death rate / the number of survival cells: Daudi cells
Description: (§1) Human lymphoma cell line cells are cultured in RPMI 1640 culture medium containing 10% new-born calf serum, placed in a 5% CO2 incubator, and cultured at 37° C. with saturated humidity. The medium is changed every 1-2 days. When the cells grow well, the drug is applied to the cells.
The growing well human B lymphoma cell line Daudi cells are cultured in a 24-well plate; each well is inoculated with 1 ml of the cell culture with a cell density of 1.5χ10^5/ml, and they are divided into experimental and control groups. […], the cells in each group are treated with the arsenic compound solution with respective concentration in terms of As2O3 added, for example, the cells in 0.8 μg/ml As2O3 group are treated with 0.8 μg/ml arsenic compound solution, and the arsenic compound solutions with different concentration are prepared by the following method: the arsenic compound solution obtained in Example 1 is first diluted with deionized water to 80 μg/ml, and then diluted to the desired concentration with 1640 culture fluid to obtain arsenic compound solutions with different concentration. The control group is added with a equal volume of culture fluid. The 24-well plate is placed in a 5% CO2 incubator, the cells are cultured at 37° C. and saturated humidity for a predetermined time, and then detected correspondingly. The cell suspensions are stained by physiological saline solution of 0.3% trypan blue for counting survival, dead cells; and the results are shown in Table 2: […]

[3] = tested on: human malignant B cell lymphoma cell line Raji cells; conditions: Raji cells 2.0×10^5/ml, 0.5˜2.0 μmol/L As2O3, 24, 48, 72 hours; cited from earlier work
[4] = tested on: human T cell lymphoma cell line jurkat cells; assay: Detection of apoptotic bodies by light microscopy; format: cell-based; conditions: 0.8 μg/ml As2O3, 24 h, FIG. 12B
Description: Human B lymphoma cell line Daudi cells and human T lymphoma cell line jurkat cells in the control group and As2O3-treated group ([…]) which have been cultured for 24 h are collected to prepare smears, Wright-Giemsa stained, and observed under a light microscope to determine the morphological changes of cells.
1) apoptotic bodies: human B lymphoma cell line Daudi cells and human T-cell lymphoma cell line jurkat cells in the control group and in the As2O3-treated group which have been cultured or treated for 24 h are collected to prepare smears, subjected to the detection of apoptotic bodies and photographed. The results are shown in FIGS. 12A and 12B; FIG. 12A is a light microscopy image of apoptotic bodies of human T cell lymphoma cell line jurkat cells in the control group; and FIG. 12B is a light microscopy image of apoptotic bodies of human T cell lymphoma cell line jurkat cells treated with […] As2O3, and the […] As2O3 is prepared as follows: the arsenic compound solution obtained in Example 1 is first diluted with deionized water to 80 μg/ml, and then diluted to […] with 1640 culture fluid.

[5] = tested on: human T-cell lymphoma cell line jurkat cells; conditions: jurkat cells 2.0×10^5/ml, As2O3 0.5, 1.0, 2.0, 4.0 μmol/L; cited from earlier work
[6] = tested on: human T lymphoma cell lines jurkat cell; assay: Mitochondrial membrane potential, JC-1 fluorescent probe; format: cell-based
Excerpt: Beyotime mitochondrial membrane potential detection kit (JC-1) is used; after the cells have been labeled with the fluorescent probe, they can be observed with a fluorescence microscope using conventional settings for observing red and green fluorescence, and photographed.
Measurement principle: The JC-1 fluorescent probe is used to detect mitochondrial potential; when the mitochondrial membrane potential is high, JC-1 aggregates in the mitochondrial matrix to form a polymer, which can produce red fluorescence; when the mitochondrial membrane potential is low, JC-1 can not aggregate in the mitochondrial matrix or the aggregation decreases, in this case, JC-1 exists in monomeric form and generates green fluorescence.
100 μl of suspension cultured cell liquid is centrifugalized and washed to obtain a sample. The sample is made into smears and observed by fluorescence microscopy, and three pictures are taken respectively by using conventional filter, red fluorescence, and green fluorescence sets in the same field of view. […]

[7] = tested on: human T-cell lymphoma cell line jurkat cells; assay: Trypan blue count of survival and dead jurkat cells; format: cell-based; conditions: for effect on proliferation / cell growth of jurkat cells: 0.2-0.8 μg/ml, 24, 48, 72 h; for Death rate / the number of survival cells / total number of the cells: jurkat cells
Description: as §1
The human T-cell lymphoma cell line jurkat cells in exponential growth phase are inoculated into a 24-well plate and cultured; 1 ml of jurkat cells with a cell density of 2χ10^5/ml are inoculated into each well, and the 24-well plate is placed in a 37° C., 5% CO2 incubator. Jurkat cells are treated with the arsenic compound solutions with different final As2O3 concentrations of 0, 0.2, 0.4, 0.8 μg/ml for 24, 48, 72 hours, and the arsenic compound solutions with different final As2O3 concentrations are prepared as follows: the arsenic compound solution obtained in Example 1 is first diluted with deionized water to 80 μg/ml, and then diluted to the desired concentration with 1640 culture fluid. The treated cell suspensions are stained with physiological saline solution of 0.3% trypan blue for determining survival, dead cell count, and the results shown in Table 3: […]

arsenic trioxide [As2O3]
relation of jurkat cell apoptotic rate to concentration ([1]; R=0.997 (P<0.01), dose-dependent): positively correlated with the concentration | Apoptotic rate ([1]; As2O3 0.2 μg/ml): 0.7% | Early apoptotic rate ([1]; As2O3 0.2 μg/ml): 6.5% | Early apoptotic rate + Apoptotic rate ([1]; As2O3 0.2 μg/ml): 7.2% | Survival rate ([1]; As2O3 0.2 μg/ml): 92.8% | Apoptotic rate ([1]; As2O3 0.4 μg/ml): 1.4% | Early apoptotic rate ([1]; As2O3 0.4 μg/ml): 14.1% | Early apoptotic rate + Apoptotic rate ([1]; As2O3 0.4 μg/ml): 15.5% | Survival rate ([1]; As2O3 0.4 μg/ml): 84.5% | Apoptotic rate ([1]; As2O3 0.8 μg/ml): 5.0% | Early apoptotic rate ([1]; As2O3 0.8 μg/ml): 26.1% | Early apoptotic rate + Apoptotic rate ([1]; As2O3 0.8 μg/ml): 31.0% | Survival rate ([1]; As2O3 0.8 μg/ml): 69.0% | Apoptotic rate ([1]; As2O3 1.6 μg/ml): 15.8% | Early apoptotic rate ([1]; As2O3 1.6 μg/ml): 50.8% | Early apoptotic rate + Apoptotic rate ([1]; As2O3 1.6 μg/ml): 66.6% | Survival rate ([1]; As2O3 1.6 μg/ml): 33.4% | effect on cell viability and growth of Daudi cells ([2]; 0.1-0.8 μg/ml, 20 h and 68 h, dose dependence): significantly reduce the cell viability | Death rate ([2]; As2O3 0.1 μg/ml, 20 h): 33% | the number of survival cells ([2]; As2O3 0.1 μg/ml, 20 h): 1.40 10^5/ml | Death rate ([2]; As2O3 0.1 μg/ml, 68 h): 66% | the number of survival cells ([2]; As2O3 0.1 μg/ml, 68 h): 1.24 10^5/ml | Death rate ([2]; As2O3 0.2 μg/ml, 20 h): 44% | the number of survival cells ([2]; As2O3 0.2 μg/ml, 20 h): 1.27 10^5/ml | Death rate ([2]; As2O3 0.2 μg/ml, 68 h): 75% | the number of survival cells ([2]; As2O3 0.2 μg/ml, 68 h): 0.77 10^5/ml | Death rate ([2]; As2O3 0.4 μg/ml, 20 h): 56% | the number of survival cells ([2]; As2O3 0.4 μg/ml, 20 h): 0.99 10^5/ml | Death rate ([2]; As2O3 0.4 μg/ml, 68 h): 88% | the number of survival cells ([2]; As2O3 0.4 μg/ml, 68 h): 0.30 10^5/ml | Death rate ([2]; As2O3 0.8 μg/ml, 20 h): 68% | the number of survival cells ([2]; As2O3 0.8 μg/ml, 20 h): 0.58 10^5/ml | Death rate ([2]; As2O3 0.8 μg/ml, 68 h): 98% | the number of survival cells ([2]; As2O3 0.8 μg/ml, 68 h): 0.06 10^5/ml | sensitivity of Daudi cells to As2O3-induced cell death relative to jurkat cells ([2]; comparison of Table 2 with Table 3): more sensitive | effect on cell growth (number of active cells) [3]: inhibited cell growth in a dose dependent manner | morphological changes, apoptotic bodies [4]: nuclear fragmentation, cellular debris and apoptotic bodies appear | effect on cell growth [5]: did not inhibit cell growth | number of the cells and red fluorescence intensity of JC-1 in the mitochondria ([6]; 0.4 μg/m As2O3 treated group compared with control group): have decreased significantly | number of the cells and red fluorescence intensity of JC-1 in the cells ([6]; 0.8 As2O3 treated group compared with 0.4 μg/m group): have also decreased significantly | effect on proliferation / cell growth of jurkat cells [7]: can inhibit cell growth | effect on proliferation / cell growth of jurkat cells ([7]; listed as arsenic compound): significant inhibitory effect | Death rate ([7]; As2O3 0.2 μg/ml, 24 h): 5.2% | the number of survival cells ([7]; As2O3 0.2 μg/ml, 24 h): 7.56 10^5/ml | total number of the cells ([7]; As2O3 0.2 μg/ml, 24 h): 7.98 10^5/ml | Death rate ([7]; As2O3 0.2 μg/ml, 48 h): 16% | the number of survival cells ([7]; As2O3 0.2 μg/ml, 48 h): 10.29 10^5/ml | total number of the cells ([7]; As2O3 0.2 μg/ml, 48 h): 12.18 10^5/ml | Death rate ([7]; As2O3 0.2 μg/ml, 72 h): 46.1% | the number of survival cells ([7]; As2O3 0.2 μg/ml, 72 h): 4.95 10^5/ml | total number of the cells ([7]; As2O3 0.2 μg/ml, 72 h): 9.19 10^5/ml | Death rate ([7]; As2O3 0.4 μg/ml, 24 h): 25.9% | the number of survival cells ([7]; As2O3 0.4 μg/ml, 24 h): 4.87 10^5/ml | total number of the cells ([7]; As2O3 0.4 μg/ml, 24 h): 6.57 10^5/ml | Death rate ([7]; As2O3 0.4 μg/ml, 48 h): 34% | the number of survival cells ([7]; As2O3 0.4 μg/ml, 48 h): 5.12 10^5/ml | total number of the cells ([7]; As2O3 0.4 μg/ml, 48 h): 7.73 10^5/ml | Death rate ([7]; As2O3 0.4 μg/ml, 72 h): 50.9% | the number of survival cells ([7]; As2O3 0.4 μg/ml, 72 h): 3.66 10^5/ml | total number of the cells ([7]; As2O3 0.4 μg/ml, 72 h): 7.45 10^5/ml | Death rate ([7]; As2O3 0.8 μg/ml, 24 h): 47.3% | the number of survival cells ([7]; As2O3 0.8 μg/ml, 24 h): 2.92 10^5/ml | total number of the cells ([7]; As2O3 0.8 μg/ml, 24 h): 5.53 10^5/ml | Death rate ([7]; As2O3 0.8 μg/ml, 48 h): 55% | the number of survival cells ([7]; As2O3 0.8 μg/ml, 48 h): 2.5 10^5/ml | total number of the cells ([7]; As2O3 0.8 μg/ml, 48 h): 5.61 10^5/ml | Death rate ([7]; As2O3 0.8 μg/ml, 72 h): 69.7% | the number of survival cells ([7]; As2O3 0.8 μg/ml, 72 h): 1.84 10^5/ml | total number of the cells ([7]; As2O3 0.8 μg/ml, 72 h): 6.08 10^5/ml
